# Test results taken from patent US6706663B2, “Herbicidal 3-heterocyclic substituted benzisothiazole and benzisoxazole compounds” (Wyeth, priority 2000, dated 2004).
# Experiments:
# SETVI (Setaria viridis) [1] = assay: Postemergence herbicidal evaluation; assay type: in vivo, (L.) Beau
# How it was run: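 First, seedlings are raised in flats for about two weeks. Next, compound dispersed in 50/50 acetone/water with 0.5% TWEEN 20 is sprayed at 40 psi to deliver about 0.0040–1.000 kg/ha. Plants are then maintained in the greenhouse and rated 0-9 after four to five weeks.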
# [2] = system: GLXMAW (Soybean, Williams); assay: Preemergence herbicidal evaluation; assay type: in vivo, Glycine max, (L.) Merr. cv Williams; settings: rated 4-5 weeks after treatment
# CYPIR (Cyperus iria) = assay: Flooded paddy, preemergence weed control; assay type: in vivo; settings: rated 3-4 weeks after treatment, 0-9 rating scale
# How it was run: (§1)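 Seeds or propagules were planted in the top 0.5 cm of silt loam soil and kept flooded 1.5–3 cm above the surface throughout, then held in the greenhouse. Injury was rated visually on a 0–9 scale against untreated controls, covering stand, vigor, malformation, size and chlorosis.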
# GALAP (Galium aparine) = assay: Postemergence herbicidal evaluation; assay type: in vivo
# How it was run: (§2)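 Seedlings grown for about two weeks were sprayed postemergence and then kept under standard greenhouse care. Injury was rated visually 4–5 weeks after treatment on a 0–9 scale against untreated controls, and ratings from repeat tests were averaged.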
# [3] = system: IPOHE (Ipomoea hederacea); assay: Preemergence herbicidal evaluation; assay type: in vivo, (L.) Jacq.; settings: rated 4-5 weeks after treatment
# [4] = system: GLXMAW (Soybean, Williams); assay: Postemergence herbicidal evaluation; assay type: in vivo, Glycine max, (L.) Merr. cv Williams
# How it was run: as §2
# ZEAMX (Corn, Field) = assay: Preemergence herbicidal evaluation; assay type: in vivo, Zea mays, L.; settings: rated 4-5 weeks after treatment
# SETVI (Setaria viridis) [5] = assay: Preemergence herbicidal evaluation; assay type: in vivo, (L.) Beau; settings: rated 4-5 weeks after treatment
# How it was run: (§3)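 Each species was sown separately in potting soil over roughly one inch of soil, and the surface sprayed with compound dissolved in aqueous acetone. Assessment used a 0–9 visual scale against a control after four to five weeks.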
# [6] = system: ECHCG (Echinochloa crus-galli); assay: Preemergence herbicidal evaluation; assay type: in vivo, (L.) Beau; settings: rated 4-5 weeks after treatment
# How it was run: as §3
# [7] = system: MOOVA (Monochoria vaginalis); assay: Flooded paddy, preemergence weed control; assay type: in vivo, Presl.; settings: rated 3-4 weeks after treatment, 0-9 rating scale
# How it was run: as §1
SMILES,"Postemergence herbicidal rating, SETVI (SETVI (Setaria viridis) [1]; rate 0.0320 kg/ha)","Postemergence herbicidal rating, SETVI (SETVI (Setaria viridis) [1]; rate 0.0620 kg/ha)","herbicidal rating, CYPIR (CYPIR (Cyperus iria); rate 0.0080 kg/ha)","herbicidal rating, CYPIR (CYPIR (Cyperus iria); rate 0.0320 kg/ha)","herbicidal rating, CYPIR (CYPIR (Cyperus iria); rate 0.1250 kg/ha)","Postemergence herbicidal rating, GALAP (GALAP (Galium aparine); rate 0.0320 kg/ha)","Postemergence herbicidal rating, GALAP (GALAP (Galium aparine); rate 0.0620 kg/ha)","Postemergence herbicidal rating, GLXMAW ([4]; rate 0.0320 kg/ha)","Postemergence herbicidal rating, GLXMAW ([4]; rate 0.0620 kg/ha)","herbicidal rating, MOOVA ([7]; rate 0.0320 kg/ha)","herbicidal rating, MOOVA ([7]; rate 0.1250 kg/ha)",Preemergence herbicidal rating GLXMAW ([2]; Rate 0.0620 kg/ha),Preemergence herbicidal rating GLXMAW ([2]; Rate 0.1250 kg/ha),Preemergence herbicidal rating GLXMAW ([2]; Rate 0.2500 kg/ha),Preemergence herbicidal rating IPOHE ([3]; Rate 0.0620 kg/ha),Preemergence herbicidal rating IPOHE ([3]; Rate 0.1250 kg/ha),Preemergence herbicidal rating IPOHE ([3]; Rate 0.2500 kg/ha),"Preemergence herbicidal rating ZEAMX (ZEAMX (Corn, Field); Rate 0.0620 kg/ha)","Preemergence herbicidal rating ZEAMX (ZEAMX (Corn, Field); Rate 0.1250 kg/ha)","Preemergence herbicidal rating ZEAMX (ZEAMX (Corn, Field); Rate 0.2500 kg/ha)",also measured
"Cc1csc(-c2nsc3ccc(-n4c(=O)cc(C(F)(F)F)n(C)c4=O)cc23)n1 [Compound 7, 1-methyl-3-[3-(4-methyl-2-thiazolyl)-1,2-benzisothiazol-5-yl]-6-(trifluoromethyl)uracil]",0.0,0.0,7.0,8.5,9.0,2.0,9.0,5.0,5.0,9.0,9.0,–,–,–,–,–,–,–,–,–,"Postemergence herbicidal rating, SETVI (SETVI (Setaria viridis) [1]; rate 0.1250 kg/ha): 2.0; GLXMAW preemergence herbicidal rating ([2]; Rate 0.0620 kg/ha): 0.0; GLXMAW preemergence herbicidal rating ([2]; Rate 0.1250 kg/ha): 0.0; GLXMAW preemergence herbicidal rating ([2]; Rate 0.2500 kg/ha): 2.0; Postemergence herbicidal rating, GALAP (GALAP (Galium aparine); rate 0.1250 kg/ha): 7.0; IPOHE preemergence herbicidal rating ([3]; Rate 0.0620 kg/ha): 0.0; IPOHE preemergence herbicidal rating ([3]; Rate 0.1250 kg/ha): 0.0; IPOHE preemergence herbicidal rating ([3]; Rate 0.2500 kg/ha): 9.0; Postemergence herbicidal rating, GLXMAW ([4]; rate 0.1250 kg/ha): 5.5; ZEAMX preemergence herbicidal rating (ZEAMX (Corn, Field); Rate 0.0620 kg/ha): 0.0; ZEAMX preemergence herbicidal rating (ZEAMX (Corn, Field); Rate 0.1250 kg/ha): 4.0; ZEAMX preemergence herbicidal rating (ZEAMX (Corn, Field); Rate 0.2500 kg/ha): 8.0; SETVI preemergence herbicidal rating (SETVI (Setaria viridis) [5]; Rate 0.0620 kg/ha): 9.0; SETVI preemergence herbicidal rating (SETVI (Setaria viridis) [5]; Rate 0.1250 kg/ha): 9.0; SETVI preemergence herbicidal rating (SETVI (Setaria viridis) [5]; Rate 0.2500 kg/ha): 9.0; ECHCG preemergence herbicidal rating ([6]; Rate 0.0620 kg/ha): 0.0; ECHCG preemergence herbicidal rating ([6]; Rate 0.1250 kg/ha): 3.0; ECHCG preemergence herbicidal rating ([6]; Rate 0.2500 kg/ha): 3.0; herbicidal rating, MOOVA ([7]; rate 0.0080 kg/ha): 9.0"
"C[C@@H]1OC(c2nsc3ccc(-n4c(=O)cc(C(F)(F)F)n(C)c4=O)cc23)O[C@@H]1C (stereo partly drawn) [Compound 47, 3-[3-[(4R,5S)-4,5-dimethyl-1,3-dioxolan-2-yl]-1,2-benzisothiazol-5-yl]-1-methyl-6-(trifluoromethyl)uracil]",9.0,9.0,0.0,8.5,9.0,9.0,9.0,7.5,8.5,9.0,9.0,7.0,8.0,9.0,7.5,8.0,9.0,7.5,8.0,9.0,Preemergence herbicidal rating SETVI (SETVI (Setaria viridis) [5]; Rate 0.0620 kg/ha): 9.0; Preemergence herbicidal rating SETVI (SETVI (Setaria viridis) [5]; Rate 0.1250 kg/ha): 8.5; Preemergence herbicidal rating SETVI (SETVI (Setaria viridis) [5]; Rate 0.2500 kg/ha): 9.0; Preemergence herbicidal rating ECHCG ([6]; Rate 0.0620 kg/ha): 9.0; Preemergence herbicidal rating ECHCG ([6]; Rate 0.1250 kg/ha): 9.0; Preemergence herbicidal rating ECHCG ([6]; Rate 0.2500 kg/ha): 9.0
"C[C@H]1OC(c2nsc3ccc(-n4c(=O)cc(C(F)(F)F)n(C)c4=O)cc23)O[C@@H]1C [Compound 48, 3-[3-[(4R,5R)-4,5-dimethyl-1,3-dioxolan-2-yl]-1,2-benzisothiazol-5-yl]-1-methyl-6-(trifluoromethyl)uracil]",9.0,9.0,0.0,8.0,9.0,9.0,9.0,8.0,8.7,9.0,9.0,9.0,9.0,9.0,8.0,8.5,9.0,7.5,8.0,9.0,Preemergence herbicidal rating SETVI (SETVI (Setaria viridis) [5]; Rate 0.0620 kg/ha): 9.0; Preemergence herbicidal rating SETVI (SETVI (Setaria viridis) [5]; Rate 0.1250 kg/ha): 9.0; Preemergence herbicidal rating SETVI (SETVI (Setaria viridis) [5]; Rate 0.2500 kg/ha): 9.0; Preemergence herbicidal rating ECHCG ([6]; Rate 0.0620 kg/ha): 9.0; Preemergence herbicidal rating ECHCG ([6]; Rate 0.1250 kg/ha): 9.0; Preemergence herbicidal rating ECHCG ([6]; Rate 0.2500 kg/ha): 9.0
